Measurements from US20100003301A1, “Bone Defect Filler, Release-Controlled Carrier, And Their Production Methods” (The University of Tokyo, priority 2006, published 2010).

Experiment: Viscosity measurement of blocking agents (LVDV digital viscometer)
Type: physicochemical
Conditions: viscosity could not be measured
Experimental: A Z printer 406 made by Z corporation was used to produce a bone filling material. “LVDV” which is a digital viscometer made by Brookfield Co., Ltd. was used to measure viscosity. A UL (ultra low viscosity) adapter was used when the viscosity was measured. Bending strength was measured by a rheometer made by Sun Science Co., Ltd.
Viscosity of blocking agents were measured by “LVDV” which is a digital viscometer made by Brookfield Co., Ltd. The results are shown in Table 2.

- dissolution in water: cannot be dissolved in water
SMILES: NC(=O)CC[C@H](N)C(=O)O [L-glutamine]
